Assay results taken from a melting point compilation (Tetko et al.; mined from patent text by program, amines drawn as free bases though some values may be those of a salt).

Structure (SMILES)	melting point [°C]
CCCCCCOC(=O)CS(=O)(=O)Nc1c(C(C)C)cccc1C(C)C	66 to 68
O=C(NCCCn1ccnc1)c1ccco1	111 to 113
COc1cc(C2CC(=O)OC(=O)C2)cc2c(C)c(C)oc12	194 to 195
CC(=O)N1CCCN(CC2=Nc3cccc4c(=O)[nH]nc(c34)N2)CC1	191 to 193
C#CCNc1ccc([N+](=O)[O-])cc1C(F)(F)F	71 to 72
COc1cc2c(Nc3cc(OC)c(Cl)cc3Cl)c(C#N)cnc2cc1F	219 to 221
CCCCc1ncc(C(=O)O)s1	97
[N-]=[N+]=C(S(=O)(=O)C1CCCCC1)S(=O)(=O)C1CCCCC1	130 to 131
O=C(CCCCCl)c1cc2c(c([N+](=O)[O-])c1)OCC2	91 to 92
CCc1ccc(C(=O)C=CN(C)C)cc1	80 to 81
COCc1cnc(C(=O)O)c(C(=O)O)c1	161 to 162
Cc1cc2c(S(C)(=O)=O)nc(CCC(F)(F)F)nc2s1	60 to 61
C=C1CC(C(O)=Nc2cc(Cl)cc(Cl)c2)C1C(=O)O (stereo not given)	119
N#Cc1cnn(-c2ccc(Cl)c(Cl)c2Cl)c1NC(=O)CCCCl	173 to 174
COc1ccc2c(c1)CCC1C2CCC2(C)C(O)CC(C)(C)C12 (stereo not given)	87 to 91
CCn1c(=O)c2[nH]c(/C=C/c3ccc(Br)cc3)nc2n(CC)c1=O	> 270
Nc1nc(N)c(CCCCc2csc(OC(=O)N[C@@H](CCC(=O)O)C(=O)O)c2)c(O)n1	235 to 236
O=C(CCl)N1CCSC1CCc1ccccc1O (stereo not given)	98

Structure (SMILES)	melting point [°C]
CCOC(=O)c1cc2cc(OCCOC)cc([N+](=O)[O-])c2[nH]1	90 to 91
O=c1c2ccccc2nc(CCl)n1-c1ccccc1Cl	195 to 196
CN1OCCN(c2ccc(Cl)cc2Cl)C1=O	94 to 95
O=C(CN1CCCCC1)Nc1ccc(NC(=O)Nc2ccc(N(CCCl)CCCl)cc2)cc1	227 to 229
CC(=O)c1ccc(C(=O)CCl)s1	94 to 95
CC1COc2c(N3CCC(CN)C3)c(F)cc3c(=O)c(C(=O)O)cn1c23 (stereo not given)	213 to 216
Nc1nc2c(s1)CCN(CC=Cc1cccc(F)c1)CC2	128 to 132
Cc1sc(-c2cccnc2)nc1O	201 to 202
O=C1NC(=O)C(N2C(=O)c3ccccc3C2=O)CC1O (stereo not given)	195 to 230
CCc1ccc(-c2ccc3c(c2)C=C(C(=O)Nc2ccc(CN(C)C4CCOCC4)cc2)CCS3(=O)=O)cc1	257 to 260
COc1ccc(-c2c(C(C)=O)c(Cn3cncn3)nc3cc(OC)c(OC)cc23)cc1OC	180 to 181
CCOC(=O)c1c(-c2ccc(N3CCN(C)CC3)cc2)n(C)n(-c2ccc(C#N)cc2)c1=O	278 to 280
COC(=O)CCc1cnoc1-c1ccc(Cl)s1	34 to 35
Cc1ccc(-c2ssc(=S)c2C)nn1	168
OCCCc1cnoc1-c1ccc2c(c1)OCO2	45 to 46
NS(=O)(=O)c1cc2ncc(O)cc2s1	248 to 250
CCOCc1nc2c(c(C)c(C)n3nnnc23)n1CCNC(=O)N1CCOCC1	205 to 207
CCSc1nnc(S)n1N	172

Second part, the molecule after the results:

melting point [°C]	Structure (SMILES)
225 to 227	N#Cc1ccc2cc(-c3cccc(O)c3)oc2c1
144 to 146	COC(=O)c1cc(=NS(=O)(=O)c2ccccc2)c2ccccc2o1
227 to 228	CC(C)(C(N)=O)n1cc(-c2ccc(Oc3ccccc3)cc2)c2c(N)ncnc21
85 to 86	COc1ccccc1C(O)(c1ccc(C(C)C)cc1)C(C)C (stereo not given)
72	CC(CCO)c1ccc(-c2ccccc2)c(F)c1 (stereo not given)
93 to 95	NNc1cccc(F)c1[N+](=O)[O-]
237 to 238	Cc1ccc(S(=O)(=O)NC(=O)/C=C/c2c(C)nn(C)c2-n2ccc3cccnc32)cc1
160 to 161	COC(=O)c1cc(-c2nc(CCl)c(C)o2)ccc1OS(C)(=O)=O
154 to 155	CC(C)(C)OC(=O)NCCn1cnc2cnc3ccccc3c21
142	O=[N+]([O-])c1cc(O)ccc1NCCO
120	O=C(CC1(S(=O)c2ccc(Oc3ccc(F)cc3)cc2)CCOCC1)NO (stereo not given)
122 to 124	COc1ccc2c(c1)Sc1ccc(SC)cc1C(O)C2 (stereo not given)
200 to 201	CC(C(=O)c1c(O)c2cccnc2n(-c2cccc(C(F)(F)F)c2)c1=O)c1ccccc1 (stereo not given)
180 to 181	CC(C)c1cccc(C(C)C)c1NC(=O)Nc1nnn(Cc2ccccc2)n1
138 to 142	COc1ccc(C(=O)Nc2ccc(C)c(C)c2)cc1N
268	Cc1cc(NC(=O)C2=C(O)c3ccc4ccccc4c3S(=O)(=O)N2C)sn1
232 to 242	CS(=O)(=O)c1ccc(-c2cc(=O)[nH]c(C(F)(F)F)c2-c2ccc(F)cc2)cc1
217 to 220	Clc1nc2ccccc2c2c1ncn2Cc1ccccn1
137 to 138	CC1=NC(c2ccc(F)cc2F)c2ccccc2CN1C (single isomer, unassigned; (+))
115 to 116	COc1cccc(CN2Cc3cc(OC)c(OCc4ccccc4)cc3C(O)C2)c1 (stereo not given)

melting point [°C]	Structure (SMILES)
78 to 79	COC(=O)c1ccccc1OCC(O)CNC(C)C (stereo not given)
59 to 61	COC(=O)C(C)(O)c1ccc(-c2ccccc2)c(F)c1 (stereo not given)
104 to 107	O=C(NOCC(O)CN1CCCCC1)c1cccc2ccccc12 (stereo not given)
165 to 166	COc1cccc2c1OC(C(N)=O)(c1ccncc1CC(=O)OCc1ccccc1)C2 (stereo not given)
218 to 220	Cn1cc(-c2cccc(N3Cc4cc(C(C)(C)C)ccc4C3=O)c2CO)cc(Nc2ccc(N3CCNCC3=O)cn2)c1=O
170 to 171	O=C(NCc1ccc(C(F)(F)F)cc1)c1cnc(Cl)nc1N1CCCC1
> 270	COc1cc(N)c(Cl)cc1Cn1nc(-c2ccc(C(F)(F)F)cc2)[nH]c1=O
202 to 204	Cc1ccc(F)c(CSc2nc(N[C@H](C)CO)c3ncc(=O)[nH]c3n2)c1
106 to 108	O=C1c2ccccc2C(=O)N1CCCCSc1ccncc1
97 to 98	CC(C)C(=O)NCc1ccc2ccn(C3CCN(CCc4ccc(F)cc4)CC3)c2c1
115 to 117	O=C(CCl)NOC(c1ccccc1)c1ccccc1
104 to 105	Cc1cc(C)nc(Oc2ccnc3cc(Cl)ccc23)n1
290 to 293	O=c1[nH]c(=O)n2c3c(cccc13)S(=O)(=O)c1ccc(C(F)(F)F)cc1-2
131 to 136	O=C(Nc1cc(Cl)c(F)cc1-c1ccccc1)c1cccnc1Cl
136 to 138	CCC(CC)N1CCC(CNc2ccc(Cl)cc2C(=O)Nc2ccc(Cl)cn2)CC1
214 to 221	CN(C)C(=O)Nc1c(C(=O)c2cccc(Cl)c2)[nH]c2cc(Cl)ccc12
104 to 105	COc1ccc(C2=NN(c3ccc(OCc4ccccc4)cc3)C(=O)[C@@H]3CC=CC[C@H]23)cc1OC
144 to 145	CN1CCN(c2cccc3c2C[C@H](NC(=O)c2ccccc2OS(C)(=O)=O)CC3)CC1
225 to 226	COc1cc(CNC(=O)c2nc3scc(COCc4ccc(C(=O)O)cc4)c3c(=O)[nH]2)ccc1F
